Assay [1] concerns the target T1, insulin-dependent membrane tyrosine protein kinase activity (rat adipocytic membranes) (Rattus norvegicus, UniProt P15127).
T1 construct: from tissue; host or cells: epididymal fat pad adipocyte membranes, male Sprague Dawley rats
Description: Rat adipocytic membrane protein tyrosine kinase activity in the presence of 100 nM insulin. The format is biochemical. How it is done:
(§1) 100% activity represents the activity in the absence of added chromium complexes or their components. 25 μL of a rat membrane suspension corresponding to 0.0895 mg protein/mL was utilized.
(§2) Fat cells from male Sprague Dawley rats were isolated using the procedures of Rodbell^19 and Anderson et al.^20 with modifications.^2 Three rats (not kept on a Cr-deficient diet) were sacrificed by decapitation, and their epididymal fat pads removed. Rat adipocytes were washed with 1% bovine serum albumin (BSA). 50 mM Hepes, pH 7.4 buffer containing 10 μg/mL leupeptin and 5 μg/mL aprotinin. Cells were homogenized with a manual teflon homogenizer and frozen and thawed five times. The lipid layer was removed, and the cell homogenate was centrifuged for one hour at 40,000 g. The supernatant was removed, and the pellet was suspended in Hepes buffer and used as the source of membrane phosphatase and kinase activity. Protein concentrations were analyzed using the BCA method (Pierce Chemical Co.) with BSA as standard.

Assay [2] relates to membrane phosphotyrosine protein phosphatase (rat adipocytic membranes). Description: Rat adipocytic membrane phosphotyrosine phosphatase activity, p-NPP substrate. The format is biochemical. As to conditions: 5 mM p-NPP. Here is the method: 125 μL of a rat membrane suspension corresponding to 0.0856 mg of protein/mL was utilized.
as §1, §2
p-nitrophenyl phosphate (p-NPP) was used to determine the amount of PTP activity using the method of Li et al.^21 The assay used 5 mM substrate in 0.05 M Tris, pH 7.5, unless noted. Activation of PTP activity by LMWCr and other Cr-containing species was examined as described by Davis et al.^2 Solutions of LMWCr, 1,2, and the Cr-amino acid mixture were incubated with the enzyme for fifteen minutes at 37° C. before initiation of the reaction. Hydrolyses proceeded for one hour at 37° C. The extent of hydrolysis was determined at 404 nm (ε=1.78×10^4M^−1cm^−1).

Assay [3] concerns adult-onset diabetic patients. As to conditions: cited from earlier work.

T1 sequence (P15127 764-1383 limits assumed): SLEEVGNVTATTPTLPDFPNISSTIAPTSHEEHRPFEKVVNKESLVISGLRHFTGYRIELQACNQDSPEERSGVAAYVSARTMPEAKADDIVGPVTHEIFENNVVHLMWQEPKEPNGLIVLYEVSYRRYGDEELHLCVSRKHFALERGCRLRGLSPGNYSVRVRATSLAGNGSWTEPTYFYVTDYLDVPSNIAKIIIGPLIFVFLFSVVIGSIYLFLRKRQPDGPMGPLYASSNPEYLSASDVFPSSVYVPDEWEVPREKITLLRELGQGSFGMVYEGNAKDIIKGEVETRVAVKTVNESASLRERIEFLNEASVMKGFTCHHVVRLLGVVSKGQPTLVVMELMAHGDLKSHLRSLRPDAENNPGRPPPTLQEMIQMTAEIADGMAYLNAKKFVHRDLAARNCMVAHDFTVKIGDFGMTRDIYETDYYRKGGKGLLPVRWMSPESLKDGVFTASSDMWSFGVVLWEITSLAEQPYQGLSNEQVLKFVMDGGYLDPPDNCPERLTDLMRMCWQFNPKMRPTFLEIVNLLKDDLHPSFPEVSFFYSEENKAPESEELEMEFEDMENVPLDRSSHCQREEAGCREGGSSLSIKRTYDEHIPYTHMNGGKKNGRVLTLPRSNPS
T1 sequence (P15127 27-759 partner limits assumed): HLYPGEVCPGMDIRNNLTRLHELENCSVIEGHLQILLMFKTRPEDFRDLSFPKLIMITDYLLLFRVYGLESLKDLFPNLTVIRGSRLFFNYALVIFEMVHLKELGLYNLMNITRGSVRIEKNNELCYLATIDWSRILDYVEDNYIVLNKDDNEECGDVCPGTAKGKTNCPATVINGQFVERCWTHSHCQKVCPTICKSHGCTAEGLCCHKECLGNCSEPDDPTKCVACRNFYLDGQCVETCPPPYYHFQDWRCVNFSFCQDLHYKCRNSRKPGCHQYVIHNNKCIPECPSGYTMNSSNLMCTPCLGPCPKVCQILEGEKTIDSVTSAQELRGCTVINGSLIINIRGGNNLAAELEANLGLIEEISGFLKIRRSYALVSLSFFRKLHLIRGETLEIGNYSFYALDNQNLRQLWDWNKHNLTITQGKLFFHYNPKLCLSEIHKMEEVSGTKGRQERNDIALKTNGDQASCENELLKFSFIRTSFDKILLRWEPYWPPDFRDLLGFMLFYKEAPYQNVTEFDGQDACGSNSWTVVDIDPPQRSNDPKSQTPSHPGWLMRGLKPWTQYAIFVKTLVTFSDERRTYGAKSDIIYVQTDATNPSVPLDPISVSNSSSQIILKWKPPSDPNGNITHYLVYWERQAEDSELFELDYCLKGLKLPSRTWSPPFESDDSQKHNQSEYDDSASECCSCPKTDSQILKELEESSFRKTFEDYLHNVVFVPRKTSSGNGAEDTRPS
T1 sequence (P01317 25-54 partner limits assumed): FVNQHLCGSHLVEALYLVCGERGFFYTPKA
T1 sequence (P01317 85-105 partner limits assumed): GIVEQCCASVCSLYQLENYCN

On to `O=[N+]([O-])O` [nitrate], for which the “effect on insulin-dependent membrane kinase activity” value in assay [1] is recorded as “do not potentiate”. Also, the “effect on membrane phosphatase activity” value in assay [2] is reported as “do not potentiate”.
For `CCC(=O)O` [Propionic acid], the “effect on insulin-dependent membrane kinase activity” value in assay [1] was “do not potentiate”. Further, the “effect on membrane phosphatase activity” value in assay [2] is on record as “do not potentiate”.
Take [Cr3O(O2CCH3)6 (H2O)3]Cl [compound 2]: in assay [1], the “effect on insulin-dependent membrane kinase activity” value is on record as “inhibits”. Besides, the “effect on membrane phosphatase activity” value in assay [2] was “inhibits”.
As for chromium(III) picolinate, in assay [3] (138 adult-onset diabetic patients), the insulin requirements entry was “reduced insulin requirements”. Further, in assay [3] (180 adult-onset diabetic patients), the glycemic control entry was “improved glycemic control”.

The values above are taken from US6881752B2 (University of Alabama, priority 1998, dated 2005).
